pIC50: −log10 of the molar value.
Assays:
CRTH2 = molecular target: T1, CRTH2 (Homo sapiens, UniProt Q9Y5Y4); experiment: Binding activity to CRTH2 ([3H]PGD2 binding assay); details: membrane fraction of CRTH2-transfected K562 cells, read-out: CRTH2 inhibitory activity IC50
T1 construct: expressed in transfected cells; host or cells: K562 cells (membrane fraction)
T1 sequence (Q9Y5Y4 1-395): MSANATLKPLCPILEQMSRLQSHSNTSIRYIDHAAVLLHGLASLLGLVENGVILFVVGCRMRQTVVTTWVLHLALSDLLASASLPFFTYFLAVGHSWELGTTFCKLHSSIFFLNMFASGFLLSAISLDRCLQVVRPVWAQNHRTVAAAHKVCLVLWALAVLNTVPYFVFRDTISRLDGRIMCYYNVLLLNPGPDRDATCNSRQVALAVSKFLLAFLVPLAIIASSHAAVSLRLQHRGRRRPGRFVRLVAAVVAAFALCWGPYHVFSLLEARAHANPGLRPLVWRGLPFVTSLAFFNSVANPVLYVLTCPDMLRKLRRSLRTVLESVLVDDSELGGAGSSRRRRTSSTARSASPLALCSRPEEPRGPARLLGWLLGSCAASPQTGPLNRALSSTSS
Procedure: Experiment 1 Binding Activity to CRTH2
The membrane fraction prepared with CRTH2-transfected K562 cells was used for a binding assay. To a binding-reaction solution (50 mM Tris/HCl, pH 7.4, 10 mM MgCl2) the membrane fraction (0.06 mg) and 3 nM [^3H]PGD2 (172 Ci/mmol) were added, and the mixture was reacted at room temperature for 60 min. After the reaction, the mixture was filtered through a glass fiber filter paper and washed several times with cooled physiological saline, then the radioactivity retained on the filter paper was measured. The specific-binding ratio was calculated by subtracting the non-specific binding ratio which is the radioactivity similarly measured in the presence of 10 μM PGD2 from the total binding.

[1] = molecular target: T2, human CRTH2-transfected K562 cells (Homo sapiens, UniProt Q9Y5Y4); experiment: Antagonistic activity to CRTH2: calcium mobilization assay induced by PGD2; format: cell-based; details: compound at 1 μM, percent inhibition of PGD2-induced calcium mobilization
T2 construct: expressed in transfected cells; host or cells: K562 cells
T2 sequence (Q9Y5Y4 1-395): T1 sequence (Q9Y5Y4 1-395)
Procedure: Experiment 2 Evaluation of Antagonistic Activity to CRTH2
To evaluate the antagonistic activity of compounds against CRTH2, calcium mobilization assay induced by PGD2 was performed using CRTH2 transfectants.
The human CRTH2-transfected K562 cells were suspended at 2×10^6 cells/ml in assay buffer (10 mM HEPES buffer, pH 7.4, 0.1% Bovine serum albumin), and were incubated with Fura-2 AM (2 μM) for 60 min at room temperature. After washing cells were resuspended again with assay buffer, incubated at 37° C., and then treated with various concentrations of compounds for 2 min. The emitted fluorescence was measured on a calcium analyzer (CAF-110) after addition of PGD2.

pIC50 (CRTH2)	antagonistic activity to CRTH2 (% INH) [1] [% INH]	melting point	SMILES
8.23			O=C(O)Cn1c2c(c3ccccc31)CC(NS(=O)(=O)c1ccc(F)cc1)CC2 (single isomer, unassigned; (+)) [(+)-Ib-16]
7.89			Cc1ccc(S(=O)(=O)NC2CCc3c(c4ccccc4n3CC(=O)O)C2)cc1 (single isomer, unassigned; (+)) [(+)-Ib-18]
8.10			O=C(O)Cn1c2c(c3ccccc31)CC(NS(=O)(=O)c1cccs1)CC2 (single isomer, unassigned; (+)) [(+)-Ib-20]
8.21			Cc1ccc(S(=O)(=O)N(C)C2CCc3c(c4ccccc4n3CC(=O)O)C2)cc1 (single isomer, unassigned; (+)) [(+)-Ib-27]
8.31			CN(C1CCc2c(c3ccccc3n2CC(=O)O)C1)S(=O)(=O)c1cccs1 (single isomer, unassigned; (+)) [(+)-Ib-29]
7.43			O=C(O)Cn1cc(CCNS(=O)(=O)c2ccc(-c3ccc(F)cc3)cc2)c2ccccc21 [Ia-15]
7.66			Cc1c(CCNS(=O)(=O)c2ccc(F)cc2)c2ccccc2n1CC(=O)O [Ia-20]
7.74			O=C(O)Cn1cc(CCNS(=O)(=O)c2ccc(F)cc2)c2cc(Cl)ccc21 [Ia-32]
7.82	89		O=C(O)Cn1cc(CCNS(=O)(=O)c2ccc(F)cc2)c2cc(F)ccc21 [Ia-36]
7.35			CN(CCc1cn(CC(=O)O)c2ccccc12)S(=O)(=O)c1ccc(F)cc1 [Ia-39]
7.47			Cc1c(CCN(C)S(=O)(=O)c2ccc(F)cc2)c2ccccc2n1CC(=O)O [Ia-41]
7.64			CN(CCc1cn(CC(=O)O)c2ccc(Cl)cc12)S(=O)(=O)c1ccc(F)cc1 [Ia-44]
7.72			CN(CCc1cn(CC(=O)O)c2ccc(F)cc12)S(=O)(=O)c1ccc(F)cc1 [Ia-45]
7.29			C=CCN(CCc1cn(CC(=O)O)c2ccccc12)S(=O)(=O)c1ccc(F)cc1 [Ia-47]
7.24			CC(C)N(CCc1cn(CC(=O)O)c2ccccc12)S(=O)(=O)c1ccc(F)cc1 [Ia-48]
7.70	91		O=C(O)Cn1cc(CCN(Cc2ccccc2)S(=O)(=O)c2ccc(F)cc2)c2ccccc21 [Ia-51]
7.62			CS(=O)(=O)NC(=O)Cn1cc(CCN(Cc2ccccc2)S(=O)(=O)c2ccc(F)cc2)c2ccccc21 [Ia-52]
7.38			Cc1c(CCN(Cc2ccccc2)S(=O)(=O)c2ccc(F)cc2)c2ccccc2n1CC(=O)O [Ia-55]
7.24			COc1ccc2c(c1)c(CCN(Cc1ccccc1)S(=O)(=O)c1ccc(F)cc1)cn2CC(=O)O [Ia-57]

pIC50 (CRTH2)	antagonistic activity to CRTH2 (% INH) [1] [% INH]	melting point	SMILES
7.48			O=C(O)Cn1cc(CCN(Cc2ccccc2)S(=O)(=O)c2ccc(F)cc2)c2cc(Cl)ccc21 [Ia-58]
7.64			O=C(O)Cn1cc(CCN(Cc2ccccc2)S(=O)(=O)c2ccc(F)cc2)c2cc(F)ccc21 [Ia-59]
7.35			Cc1ccccc1CN(CCc1cn(CC(=O)O)c2ccccc12)S(=O)(=O)c1ccc(F)cc1 [Ia-61]
7.31		108 to 110 °C	COc1ccc(CN(CCc2cn(CC(=O)O)c3ccccc23)S(=O)(=O)c2ccc(F)cc2)cc1 [Ia-62]
7.27			O=C(O)Cn1cc(CCN(Cc2ccc([N+](=O)[O-])cc2)S(=O)(=O)c2ccc(F)cc2)c2ccccc21 [Ia-63]
7.57			O=C(O)Cn1cc(CCN(Cc2cccs2)S(=O)(=O)c2ccc(F)cc2)c2ccccc21 [Ia-65]
7.43			O=C(O)Cn1cc(CCN(CCc2ccccc2)S(=O)(=O)c2ccc(F)cc2)c2ccccc21 [Ia-66]
7.10			O=C(O)Cn1cc(CCCN(Cc2ccccc2)S(=O)(=O)c2ccc(F)cc2)c2ccccc21 [Ia-85]
7.26			CN(C1Cc2c(n(CC(=O)O)c3ccccc23)C1)S(=O)(=O)c1ccc(F)cc1 (stereo not drawn) [Ib-6]
7.92			O=C(O)Cn1c2c(c3ccccc31)CC(NS(=O)(=O)c1ccsc1)CC2 (stereo not drawn) [Ib-21]
8.28		175 to 180 °C	CN(C1CCc2c(c3ccccc3n2CC(=O)O)C1)S(=O)(=O)c1ccsc1 (stereo not drawn) [Ib-30]
7.23	96	138 to 140 °C	CN(C1CCc2c(c3ccccc3n2CC(=O)O)C1)S(=O)(=O)c1ccc(Cc2ccccc2)s1 (stereo not drawn) [Ib-31]
7.68		142 to 143 °C	O=C(O)Cn1cc(C2=CCCN(S(=O)(=O)c3ccc(F)cc3)C2)c2ccccc21 [Ic-2]
8.35	100	189 to 194 °C (dec.)	O=C(O)Cn1cc(C2CCCN(S(=O)(=O)c3ccc(F)cc3)C2)c2ccccc21 (stereo not drawn) [Ic-6]
8.26		155 to 156 °C	O=C(O)Cn1cc(C2CCN(S(=O)(=O)c3ccc(F)cc3)C2)c2ccccc21 (stereo not drawn) [Ic-14]
7.41		139 to 141 °C	O=C(O)Cn1c2ccccc2c2cc(NS(=O)(=O)c3ccc(F)cc3)ccc21 [Ie-2]
7.74		188 to 191 °C	CN(c1ccc2c(c1)c1ccccc1n2CC(=O)O)S(=O)(=O)c1ccc(F)cc1 [Ie-5]
7.59		212 to 213 °C	O=C(O)Cn1c2ccccc2c2cc(N(Cc3ccccc3)S(=O)(=O)c3ccc(F)cc3)ccc21 [Ie-8]
7.72			Cc1c(C(C)(C)CNS(=O)(=O)c2ccc(F)cc2)c2ccccc2n1CC(=O)O [If-1]

pIC50 (CRTH2)	antagonistic activity to CRTH2 (% INH) [1] [% INH]	melting point	SMILES
7.80			Cc1c(C(C)CNS(=O)(=O)c2ccc(F)cc2)c2ccccc2n1CC(=O)O (stereo not drawn) [If-4]
7.92		117 to 120 °C	O=C(O)Cn1cc(C(CNS(=O)(=O)c2ccc(F)cc2)c2ccccc2)c2ccccc21 (stereo not drawn) [If-9]
8.01		214 to 217 °C	CN(c1ccc2c(c1)c1c(n2CC(=O)O)CCSC1)S(=O)(=O)c1ccc(F)cc1 [Ig-3]
8.00		209 to 211 °C	O=C(O)Cn1c2c(c3cc(NS(=O)(=O)c4ccc(F)cc4)ccc31)CCCCC2 [Ig-11]
8.08		144 to 150 °C	COc1ccc(S(=O)(=O)N(C)c2ccc3c(c2)c2c(n3CC(=O)O)CCCCC2)cc1 [Ig-14]
8.12			CCN(c1ccc2c(c1)c1c(n2CC(=O)O)CCCCC1)S(=O)(=O)c1ccc(F)cc1 [Ig-15]
8.44		186 to 189 °C	CN(c1ccc2c(c1)c1c(n2CC(=O)O)CCCCC1)S(=O)(=O)c1ccc(O)cc1 [Ig-16]
7.72		193 to 197 °C	O=C(O)Cn1c2c(c3cc(NS(=O)(=O)c4ccc(F)cc4)ccc31)CCCCCC2 [Ig-18]
7.48		198 to 202 °C	O=C(O)Cn1c2c(c3cc(N(Cc4ccccc4)S(=O)(=O)c4ccc(F)cc4)ccc31)CCCC2 [Ih-3]
7.64		100 to 101 °C	CC1CCc2c(c3cc(N(C)S(=O)(=O)c4ccc(F)cc4)ccc3n2CC(=O)O)C1 (stereo not drawn) [Ih-5]
7.47		176 to 178 °C	CC1CCc2c(c3cc(N(Cc4ccccc4)S(=O)(=O)c4ccc(F)cc4)ccc3n2CC(=O)O)C1 (stereo not drawn) [Ih-6]
7.59			O=C(O)Cn1cc(C2CCC(NS(=O)(=O)c3ccc(F)cc3)C2)c2ccccc21 (stereo not drawn) [Ij-1]
7.28			CN(C1CCC(c2cn(CC(=O)O)c3ccccc23)C1)S(=O)(=O)c1ccc(F)cc1 (stereo not drawn) [Ij-2]
7.28			O=C(O)Cn1cc(C2CCC(N(Cc3ccccc3)S(=O)(=O)c3ccc(F)cc3)C2)c2ccccc21 (stereo not drawn) [Ij-3]
7.32		165 to 179 °C	Cc1c(C)n(CC(=O)O)c2ccc(N(C)S(=O)(=O)c3ccc(F)cc3)cc12 [Ik-1]
7.07		206 to 208 °C (dec.)	Cc1cc2cc(N(C)S(=O)(=O)c3ccc(F)cc3)ccc2n1CC(=O)O [Ik-2]
7.29		172 to 178 °C	CCc1c(C)n(CC(=O)O)c2ccc(NS(=O)(=O)c3ccc(F)cc3)cc12 [Ik-3]
7.33		165 to 171 °C	Cc1c(C(C)C)c2cc(NS(=O)(=O)c3ccc(F)cc3)ccc2n1CC(=O)O [Ik-4]
7.72		161 to 167 °C	CCc1c(C)n(CC(=O)O)c2ccc(N(C)S(=O)(=O)c3ccc(F)cc3)cc12 [Ik-5]

SMILES	pIC50 (CRTH2)	antagonistic activity to CRTH2 (% INH) [1] [% INH]	melting point
CN(c1ccc2c(c1)c1c(n2CC(=O)O)CCCC1=O)S(=O)(=O)c1ccc(F)cc1 [Ig-4]	8.11		218 to 220 °C
CN(c1ccc2c(c1)c1c(n2CC(=O)O)CCCC1)S(=O)(=O)c1ccc(F)cc1 [Ih-2]		91	

Reference: patent US7534897B2 (Shionogi & Co., Ltd., priority 2002, dated 2009)
